Columns and labels:
[1] = target: T1, 5-hydroxytryptamine receptor 2C (Homo sapiens, UniProt P28335); experiment: 5-HT2C Receptor Binding Inhibition Assay
T1 sequence (P28335 whole entry): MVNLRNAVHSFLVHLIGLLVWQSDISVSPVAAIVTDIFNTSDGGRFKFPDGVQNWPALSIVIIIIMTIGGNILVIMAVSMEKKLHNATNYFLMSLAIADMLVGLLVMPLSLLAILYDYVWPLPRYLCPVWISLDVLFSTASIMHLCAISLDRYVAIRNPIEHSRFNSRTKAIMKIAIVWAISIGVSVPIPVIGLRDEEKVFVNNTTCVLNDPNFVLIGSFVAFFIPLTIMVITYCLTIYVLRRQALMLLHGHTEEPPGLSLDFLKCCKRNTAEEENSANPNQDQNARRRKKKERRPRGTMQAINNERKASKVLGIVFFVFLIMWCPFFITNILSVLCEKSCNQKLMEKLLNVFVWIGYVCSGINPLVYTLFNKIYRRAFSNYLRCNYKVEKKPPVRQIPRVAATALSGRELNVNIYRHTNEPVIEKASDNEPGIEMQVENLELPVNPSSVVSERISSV
Experimental: (§1) Binding Test of the Compound According to the Present Invention:In advance, 0.5 μL of the compound solution dissolved in DMSO was dispensed into a microplate, and the cell membrane and the hot ligand were diluted with Assay buffer, respectively. Then, the Assay buffer containing the diluted cell membrane was dispensed into a microplate at 50 μL/well. Then, the radioactive ligand solution was dispensed into a microplate at 50 μL/well, and the plate was sealed. Then, it was allowed to stand at 37° C. for 2 hours. During this period, 50 mmol/L Tris-HCl (pH 7.4) was dispensed into a GF/B UniFilter plate at 50 μL/well and allowed to stand at 4° C. for 1 hour or longer. After that, filtration was performed with Cell harvester (PerkinElmer). After the GF/B UniFilter plate was dried at room temperature, MicroScinti 20 was dispensed into the GF/B UniFilter plate at 50 μL/well, and the plate was sealed. […] The radioactivity of [3H]-Mesulergine bound to the […] receptor was measured using Microbeta2 (PerkinElmer) at a measurement time of 1 min/well. The non-specific binding was calculated from the radioactivity of [3H]-Mesulergine in the presence of 500 μmol/L Serotonin HCl with the unlabeled ligand, and the total binding was calculated from the radioactivity of [3H]-Mesulergine in the absence of the compound according to the present invention (Vehicle).

[2] = target: 5-hydroxytryptamine receptor 2A (Homo sapiens, UniProt P28223); experiment: 5-HT2A Receptor Binding Inhibition Assay
Experimental: as §1, with “Present Invention: In” for “Present Invention:In”, “at room temperature (25° C.)” for “at 37° C.”, “for 1.5” for “for 2”, “(PerkinElmer).” for “(PerkinElmer). After the GF/B UniFilter plate was dried at room temperature, MicroScinti 20 was dispensed into the GF/B UniFilter plate at 50 μL/well, and the plate was sealed.”, “of [3H]-Ketanserin” for “of [3H]-Mesulergine”, “(Vehicle). Finally, the Ki value was calculated from the dose-response curve.” for “(Vehicle).”

Chain of 5-hydroxytryptamine receptor 2A (P28223 whole entry): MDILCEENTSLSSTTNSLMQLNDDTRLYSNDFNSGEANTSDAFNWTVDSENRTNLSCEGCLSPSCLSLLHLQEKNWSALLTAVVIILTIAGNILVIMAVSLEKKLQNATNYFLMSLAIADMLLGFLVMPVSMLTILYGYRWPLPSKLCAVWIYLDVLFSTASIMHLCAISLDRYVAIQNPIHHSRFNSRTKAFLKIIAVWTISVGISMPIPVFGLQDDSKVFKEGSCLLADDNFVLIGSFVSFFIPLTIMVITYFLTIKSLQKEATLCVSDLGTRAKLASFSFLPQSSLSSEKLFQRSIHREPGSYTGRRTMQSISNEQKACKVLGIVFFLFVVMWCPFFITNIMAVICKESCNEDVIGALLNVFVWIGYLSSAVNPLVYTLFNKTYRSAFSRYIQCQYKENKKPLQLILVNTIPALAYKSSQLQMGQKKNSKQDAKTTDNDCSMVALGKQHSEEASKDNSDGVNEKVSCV

For `CC(C)CNc1ccc(CN(Cc2ccn(C)n2)C(=O)NC2CCN(C)CC2)cc1` [US20240083872, Compound I-030], the Ki [1] was 7.76 nM and the Ki [2] was 2.17 nM.
